Reference: ChEMBL document CHEMBL3885861, “Open TG-GATES”

Organism: Rattus norvegicus
Experiment: Open TG-GATES - Regimen: Single
Type: toxicity, organism-based, Sprague-Dawley
Design: regimen Single, gender Male, age 6 weeks
Conditions: in vivo, po, 0 mg/kg, route gavage, dose level Control; for APTT / Bas / Eos / Fbg / Hb / Ht / Lym / MCH / MCHC / MCV / Mono / Neu / PT / Plat / RBC / Ret / WBC: tissue Blood; for KIDNEY_L / KIDNEY_R / KIDNEY_TOTAL: tissue Kidney; for LIVER: tissue Liver; for A/G / ALP / ALT / AST / BUN / CRE / Ca / Cl / DBIL / GLC / IP / K / LDH / Na / PL / RALB / TBIL / TC / TG / TP / gamma-GTP: tissue Plasma

Molecule Nc1nc(N)c2nc(-c3ccccc3)c(N)nc2n1 has a TERMINAL_BW (3 h) of 212 g, an APTT (3 h) of 16.9 s and a Bas (3 h) of 0%. It also gave an Eos (3 h) of 1%, a Fbg (3 h) of 287.4 mg/dL and a Hb (3 h) of 13.9 g/dL. The Ht (3 h) was 42%, the Lym (3 h) was 79.2% and the MCH (3 h) was 21.4 pg. For the same molecule, the MCHC (3 h) was 33%, the MCV (3 h) was 64.6 fL and the Mono (3 h) was 3.2%. The Neu (3 h) was 16%, the PT (3 h) was 14.2 s and the Plat (3 h) was 114.1 x10_4/uL. The RBC (3 h) was 651 x10_4/ul, the Ret (3 h) was 7.4% and the WBC (3 h) was 92.6 x10_2/uL. It also gave a KIDNEY_L (3 h) of 1 g, a KIDNEY_R (3 h) of 1 g and a KIDNEY_TOTAL (3 h) of 1.9 g. The LIVER (3 h) was 9.3 g, the A/G (3 h) was 1 and the ALP (3 h) was 1479.4 IU/L. The ALT (3 h) was 44.2 IU/L, the AST (3 h) was 76.6 IU/L and the BUN (3 h) was 9.4 mg/dL. For the same molecule, the CRE (3 h) was 0.2 mg/dL, the Ca (3 h) was 11 mg/dL and the Cl (3 h) was 105.2 meq/L. It also gave a DBIL (3 h) of 0.008 mg/dL, a GLC (3 h) of 173.4 mg/dL and an IP (3 h) of 9.2 mg/dL. For the same molecule, the K (3 h) was 3.9 meq/L, the LDH (3 h) was 58.4 IU/L and the Na (3 h) was 143.2 meq/L. It also gave a PL (3 h) of 143.4 mg/dL, an RALB (3 h) of 2.6 g/dL and a TBIL (3 h) of 0.06 mg/dL. For the same molecule, the TC (3 h) was 79.6 mg/dL, the TG (3 h) was 50.8 mg/dL and the TP (3 h) was 5.3 g/dL. For the same molecule, the gamma-GTP (3 h) was 1 IU/L, the TERMINAL_BW (6 h) was 211.8 g and the APTT (6 h) was 16.8 s. For the same molecule, the Bas (6 h) was 0%, the Eos (6 h) was 0.4% and the Fbg (6 h) was 302.8 mg/dL. For the same molecule, the Hb (6 h) was 13.9 g/dL, the Ht (6 h) was 42.3% and the Lym (6 h) was 77.2%. It also gave an MCH (6 h) of 21.3 pg, an MCHC (6 h) of 32.9% and an MCV (6 h) of 64.8 fL. The Mono (6 h) was 2.6%, the Neu (6 h) was 19% and the PT (6 h) was 14 s. For the same molecule, the Plat (6 h) was 123.2 x10_4/uL, the RBC (6 h) was 653.2 x10_4/ul and the Ret (6 h) was 7.4%. For the same molecule, the WBC (6 h) was 93.6 x10_2/uL, the KIDNEY_L (6 h) was 1 g and the KIDNEY_R (6 h) was 1 g. For the same molecule, the KIDNEY_TOTAL (6 h) was 1.9 g, the LIVER (6 h) was 9.6 g and the A/G (6 h) was 0.9. It also gave an ALP (6 h) of 1424.2 IU/L, an ALT (6 h) of 34.6 IU/L and an AST (6 h) of 69.2 IU/L. For the same molecule, the BUN (6 h) was 9.6 mg/dL, the CRE (6 h) was 0.2 mg/dL and the Ca (6 h) was 10.8 mg/dL. For the same molecule, the Cl (6 h) was 104.6 meq/L, the DBIL (6 h) was 0.012 mg/dL and the GLC (6 h) was 179.2 mg/dL. For the same molecule, the IP (6 h) was 9.7 mg/dL, the K (6 h) was 4.2 meq/L and the LDH (6 h) was 57.2 IU/L. The Na (6 h) was 142.8 meq/L, the PL (6 h) was 146.8 mg/dL and the RALB (6 h) was 2.6 g/dL. For the same molecule, the TBIL (6 h) was 0.066 mg/dL, the TC (6 h) was 77.8 mg/dL and the TG (6 h) was 84 mg/dL. It also gave a TP (6 h) of 5.3 g/dL, a gamma-GTP (6 h) of 1.2 IU/L and a TERMINAL_BW (9 h) of 210.8 g. It also gave an APTT (9 h) of 16.3 s, a Bas (9 h) of 0.2% and an Eos (9 h) of 1%. The Fbg (9 h) was 304.2 mg/dL, the Hb (9 h) was 13.6 g/dL and the Ht (9 h) was 41.1%. It also gave a Lym (9 h) of 73%, an MCH (9 h) of 20.5 pg and an MCHC (9 h) of 33%. The MCV (9 h) was 62.2 fL, the Mono (9 h) was 2% and the Neu (9 h) was 23.2%. It also gave a PT (9 h) of 14 s, a Plat (9 h) of 119.1 x10_4/uL and an RBC (9 h) of 661.2 x10_4/ul. It also gave a Ret (9 h) of 7.1%, a WBC (9 h) of 83.6 x10_2/uL and a KIDNEY_L (9 h) of 1 g. It also gave a KIDNEY_R (9 h) of 1 g, a KIDNEY_TOTAL (9 h) of 1.9 g and an LIVER (9 h) of 8.5 g. The A/G (9 h) was 1, the ALP (9 h) was 1497.4 IU/L and the ALT (9 h) was 36.6 IU/L. For the same molecule, the AST (9 h) was 68 IU/L, the BUN (9 h) was 10 mg/dL and the CRE (9 h) was 0.2 mg/dL. For the same molecule, the Ca (9 h) was 10.6 mg/dL, the Cl (9 h) was 106 meq/L and the DBIL (9 h) was 0.008 mg/dL. The GLC (9 h) was 173.8 mg/dL, the IP (9 h) was 9.4 mg/dL and the K (9 h) was 3.9 meq/L. For the same molecule, the LDH (9 h) was 53.2 IU/L, the Na (9 h) was 143.6 meq/L and the PL (9 h) was 132.6 mg/dL. For the same molecule, the RALB (9 h) was 2.5 g/dL, the TBIL (9 h) was 0.058 mg/dL and the TC (9 h) was 74 mg/dL. It also gave a TG (9 h) of 41.4 mg/dL, a TP (9 h) of 5.2 g/dL and a gamma-GTP (9 h) of 1.4 IU/L. It also gave a TERMINAL_BW (24 h) of 228.1 g, an APTT (24 h) of 17.1 s and a Bas (24 h) of 0%. For the same molecule, the Eos (24 h) was 1%, the Fbg (24 h) was 291 mg/dL and the Hb (24 h) was 14 g/dL. For the same molecule, the Ht (24 h) was 41.9%, the Lym (24 h) was 76% and the MCH (24 h) was 21.5 pg. For the same molecule, the MCHC (24 h) was 33.4%, the MCV (24 h) was 64.3 fL and the Mono (24 h) was 2.2%. The Neu (24 h) was 19.8%, the PT (24 h) was 13.7 s and the Plat (24 h) was 120.8 x10_4/uL. It also gave an RBC (24 h) of 652 x10_4/ul, a Ret (24 h) of 6.9% and a WBC (24 h) of 78.2 x10_2/uL. The KIDNEY_L (24 h) was 1 g, the KIDNEY_R (24 h) was 1 g and the KIDNEY_TOTAL (24 h) was 2 g. The LIVER (24 h) was 10.9 g, the A/G (24 h) was 0.9 and the ALP (24 h) was 1674.6 IU/L. The ALT (24 h) was 47.4 IU/L, the AST (24 h) was 72.2 IU/L and the BUN (24 h) was 15 mg/dL. For the same molecule, the CRE (24 h) was 0.2 mg/dL, the Ca (24 h) was 11.2 mg/dL and the Cl (24 h) was 104.2 meq/L. It also gave a DBIL (24 h) of 0.01 mg/dL, a GLC (24 h) of 188.6 mg/dL and an IP (24 h) of 8.2 mg/dL. It also gave a K (24 h) of 4.2 meq/L, an LDH (24 h) of 72.4 IU/L and a Na (24 h) of 142.6 meq/L. The PL (24 h) was 158.6 mg/dL, the RALB (24 h) was 2.7 g/dL and the TBIL (24 h) was 0.044 mg/dL. The TC (24 h) was 80.2 mg/dL, the TG (24 h) was 109.8 mg/dL and the TP (24 h) was 5.5 g/dL. It also gave a gamma-GTP (24 h) of 1 IU/L.
